Results taken from patent publication US9695155B2, “Herbicidal substituted pyrimidinyloxy benzene compounds” (E. I. DU PONT DE NEMOURS AND COMPANY, priority 2013, dated 2017).

Experiments:
kochia [1] = experiment: Test A preemergence; assay type: in vivo, Kochia scoparia
In short: (§1)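 Greenhouse pot test, loam/sand soil. Formulation: non-phytotoxic solvent mix plus surfactant. Pre: directed spray onto soil after sowing. Post: plants at 1–2 leaf, 2–10 cm. Rated visually vs untreated controls at ~10 d, 0 (no effect) to 100 (complete control).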

kochia [2] = experiment: Test A postemergence; assay type: in vivo, Kochia scoparia; conditions: 0 to 100 scale where 0 is no effect and 100 is complete control
In short: as §1

ragweed [3] = experiment: Test A postemergence; assay type: in vivo, Ambrosia elatior; conditions: 0 to 100 scale where 0 is no effect and 100 is complete control
In short: as §1

blackgrass = experiment: Test C preemergence; assay type: in vivo, Alopecurus myosuroides; conditions: for Blackgrass plant response rating: preemergence
In short: (§2)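 Whole-plant greenhouse test with surfactant-containing solvent formulation, applied preemergence to sown loam–sand pots or postemergence to 2–18 cm plants. Scored by eye 13 to 15 days on, 0–100 scale.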

Italian ryegrass = experiment: Test C preemergence; assay type: in vivo, Lolium multiflorum; conditions: for Ryegrass, Italian plant response rating: preemergence
In short: as §2

wheat, winter = experiment: Test C preemergence; assay type: in vivo, Triticum aestivum; conditions: for Wheat plant response rating: preemergence
In short: as §2

galium = experiment: Test C preemergence; assay type: in vivo, Galium aparine; conditions: for Galium plant response rating: preemergence
In short: as §2

corn = experiment: Test C preemergence; assay type: in vivo, Zea mays; conditions: for Corn plant response rating: preemergence
In short: as §2

giant foxtail = experiment: Test C preemergence; assay type: in vivo, Setaria faberii; conditions: for Foxtail, Giant plant response rating: preemergence
In short: as §2

johnsongrass = experiment: Test C preemergence; assay type: in vivo, Sorghum halepense; conditions: for Johnsongrass plant response rating: preemergence
In short: as §2

lambsquarters = experiment: Test C preemergence; assay type: in vivo, Chenopodium album; conditions: for Lambsquarters plant response rating: preemergence
In short: as §2

morningglory = experiment: Test C preemergence; assay type: in vivo, Ipomoea coccinea; conditions: for Morningglory plant response rating: preemergence
In short: as §2

ragweed [4] = experiment: Test C preemergence; assay type: in vivo, Ambrosia elatior; conditions: for Ragweed plant response rating: preemergence
In short: as §2

soybean = experiment: Test C preemergence; assay type: in vivo, Glycine max; conditions: for Soybean plant response rating: preemergence
In short: as §2

barnyardgrass = experiment: Test C preemergence; assay type: in vivo, Echinochloa crus-galli; conditions: for Barnyardgrass plant response rating: preemergence
In short: as §2

oilseed rape = experiment: Test C preemergence; assay type: in vivo, Brassica napus; conditions: for Oilseed Rape plant response rating: preemergence
In short: as §2

velvetleaf = experiment: Test C preemergence; assay type: in vivo, Abutilon theophrasti; conditions: for Velvetleaf plant response rating: preemergence
In short: as §2

[5] = 16 g ai/ha, scale 0 to 100 (0 no effect, 100 complete control)
[6] = 62 g ai/ha, scale 0 (no effect) to 100 (complete control)
[7] = 125 g ai/ha, scale 0 (no effect) to 100 (complete control)
[8] = Preemergence, 31 g ai/ha, scale 0 to 100, 0 no effect, 100 complete control

CC(C)c1cnn(-c2c(C#N)cccc2Oc2ncc(Cl)cn2)c1 [Compound 85]
Plant response rating, Kochia (kochia [1]; 125 g ai/ha, 0 to 100 scale where 0 is no effect and 100 is complete control): 80
Kochia plant response rating (kochia [1]; 500 g ai/ha, 0 to 100 scale, 0 no effect, 100 complete control, approx. 10 days): 100
Plant response rating, Kochia (kochia [2]; 125 g ai/ha): 70
Plant response rating, Kochia (kochia [2]; 500 g ai/ha): 100
Plant response rating, Ragweed (ragweed [3]; 125 g ai/ha): 50
Plant response rating, Ragweed (ragweed [3]; 500 g ai/ha): 60
Blackgrass plant response rating (blackgrass; [5]): 0
Blackgrass plant response rating (blackgrass; [6]): 10
Blackgrass plant response rating (blackgrass; [7]): 90
Plant response rating, Blackgrass (blackgrass; [8]): 5
Ryegrass, Italian plant response rating (Italian ryegrass; [5]): 0
Ryegrass, Italian plant response rating (Italian ryegrass; [6]): 0
Ryegrass, Italian plant response rating (Italian ryegrass; [7]): 50
Plant response rating, Ryegrass, Italian (Italian ryegrass; [8]): 0
Wheat plant response rating (wheat, winter; [5]): 0
Wheat plant response rating (wheat, winter; [6]): 0
Wheat plant response rating (wheat, winter; [7]): 5
Plant response rating, Wheat (wheat, winter; [8]): 0
Galium plant response rating (galium; [5]): 0
Galium plant response rating (galium; [6]): 50
Galium plant response rating (galium; [7]): 85
Plant response rating, Galium (galium; [8]): 0
Corn plant response rating (corn; [5]): 5
Corn plant response rating (corn; [6]): 5
Corn plant response rating (corn; [7]): 45
Plant response rating, Corn (corn; [8]): 10
Foxtail, Giant plant response rating (giant foxtail; [5]): 20
Foxtail, Giant plant response rating (giant foxtail; [6]): 90
Foxtail, Giant plant response rating (giant foxtail; [7]): 100
Plant response rating, Foxtail, Giant (giant foxtail; [8]): 35
Johnsongrass plant response rating (johnsongrass; [5]): 15
Johnsongrass plant response rating (johnsongrass; [6]): 55
Johnsongrass plant response rating (johnsongrass; [7]): 85
Plant response rating, Johnsongrass (johnsongrass; [8]): 20
Lambsquarters plant response rating (lambsquarters; [5]): 65
Lambsquarters plant response rating (lambsquarters; [6]): 100
Lambsquarters plant response rating (lambsquarters; [7]): 100
Plant response rating, Lambsquarters (lambsquarters; [8]): 100
Morningglory plant response rating (morningglory; [5]): 0
Morningglory plant response rating (morningglory; [6]): 0
Morningglory plant response rating (morningglory; [7]): 20
Plant response rating, Morningglory (morningglory; [8]): 0
Ragweed plant response rating (ragweed [4]; [5]): 0
Ragweed plant response rating (ragweed [4]; [6]): 50
Ragweed plant response rating (ragweed [4]; [7]): 65
Plant response rating, Ragweed (ragweed [4]; [8]): 0
Soybean plant response rating (soybean; [5]): 0
Soybean plant response rating (soybean; [6]): 40
Soybean plant response rating (soybean; [7]): 60
Plant response rating, Soybean (soybean; [8]): 15
Barnyardgrass plant response rating (barnyardgrass; [5]): 0
Barnyardgrass plant response rating (barnyardgrass; [6]): 75
Barnyardgrass plant response rating (barnyardgrass; [7]): 95
Plant response rating, Barnyardgrass (barnyardgrass; [8]): 15
Oilseed Rape plant response rating (oilseed rape; [5]): 0
Oilseed Rape plant response rating (oilseed rape; [6]): 90
Oilseed Rape plant response rating (oilseed rape; [7]): 98
Plant response rating, Oilseed Rape (oilseed rape; [8]): 40
Velvetleaf plant response rating (velvetleaf; [5]): 35
Velvetleaf plant response rating (velvetleaf; [6]): 100
Velvetleaf plant response rating (velvetleaf; [7]): 100
Plant response rating, Velvetleaf (velvetleaf; [8]): 80
